Test results from ChEMBL document CHEMBL1629537, “Non-natural macrocyclic inhibitors of histone deacetylases: design, synthesis, and activity” (J Med Chem, 2010).

Key:
Histone deacetylase 5 = Histone deacetylase 5 (Homo sapiens, UniProt Q9UQL6); experiment: Inhibition of human HDAC5 by fluorimetric assay
[1] = target: T1, Polyamine deacetylase HDAC10 (Homo sapiens, UniProt Q969S8); experiment: Inhibition of human HDAC10 by fluorimetric assay
T1 sequence (Q969S8 whole entry): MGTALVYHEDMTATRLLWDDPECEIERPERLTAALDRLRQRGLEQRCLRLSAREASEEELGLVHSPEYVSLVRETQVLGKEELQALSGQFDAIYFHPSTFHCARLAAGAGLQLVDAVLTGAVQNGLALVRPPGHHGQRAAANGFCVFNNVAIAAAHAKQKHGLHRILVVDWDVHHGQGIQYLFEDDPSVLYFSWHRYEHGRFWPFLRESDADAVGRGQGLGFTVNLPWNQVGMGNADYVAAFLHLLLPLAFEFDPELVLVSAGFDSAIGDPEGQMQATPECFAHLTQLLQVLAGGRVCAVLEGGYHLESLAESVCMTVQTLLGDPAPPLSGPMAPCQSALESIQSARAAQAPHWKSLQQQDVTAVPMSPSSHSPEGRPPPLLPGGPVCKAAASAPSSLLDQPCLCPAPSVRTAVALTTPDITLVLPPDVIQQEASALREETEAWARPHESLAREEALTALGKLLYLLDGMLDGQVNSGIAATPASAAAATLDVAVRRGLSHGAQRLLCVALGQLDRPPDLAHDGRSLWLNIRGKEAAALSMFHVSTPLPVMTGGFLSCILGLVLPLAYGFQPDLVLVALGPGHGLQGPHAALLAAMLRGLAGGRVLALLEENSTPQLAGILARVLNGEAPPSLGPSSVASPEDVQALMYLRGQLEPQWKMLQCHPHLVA

Histone deacetylase 1 = Histone deacetylase 1 (Homo sapiens, UniProt Q13547); experiment: Inhibition of human HDAC1 by fluorimetric assay
Histone deacetylase 8 = target: T2, Histone deacetylase 8 (Homo sapiens, UniProt Q9BY41); experiment: Inhibition of human HDAC8 by fluorimetric assay
T2 sequence (Q9BY41 whole entry): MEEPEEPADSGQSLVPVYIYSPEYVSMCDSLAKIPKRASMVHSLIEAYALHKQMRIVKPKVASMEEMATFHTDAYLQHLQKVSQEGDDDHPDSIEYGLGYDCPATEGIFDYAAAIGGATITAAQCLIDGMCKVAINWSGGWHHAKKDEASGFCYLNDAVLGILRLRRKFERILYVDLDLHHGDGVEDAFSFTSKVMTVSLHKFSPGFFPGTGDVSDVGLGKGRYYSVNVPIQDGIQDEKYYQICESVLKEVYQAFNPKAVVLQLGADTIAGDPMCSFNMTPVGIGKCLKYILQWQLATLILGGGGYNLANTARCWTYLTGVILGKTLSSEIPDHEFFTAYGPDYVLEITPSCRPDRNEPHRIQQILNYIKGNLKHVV

Histone deacetylase 2 = Histone deacetylase 2 (Homo sapiens, UniProt Q92769)
Histone deacetylase 4 = Histone deacetylase 4 (Homo sapiens, UniProt P56524); experiment: Inhibition of human HDAC4 by fluorimetric assay
Histone deacetylase 3 = Histone deacetylase 3 (Homo sapiens, UniProt O15379)
HCT-116 = experiment: cells; assay type: functional, cell-based; details: Homo sapiens, HCT-116, 48 h
Histone deacetylase 11 = target: T3, Histone deacetylase 11 (Homo sapiens, UniProt Q96DB2); experiment: Inhibition of human HDAC11 by fluorimetric assay
T3 sequence (Q96DB2 whole entry): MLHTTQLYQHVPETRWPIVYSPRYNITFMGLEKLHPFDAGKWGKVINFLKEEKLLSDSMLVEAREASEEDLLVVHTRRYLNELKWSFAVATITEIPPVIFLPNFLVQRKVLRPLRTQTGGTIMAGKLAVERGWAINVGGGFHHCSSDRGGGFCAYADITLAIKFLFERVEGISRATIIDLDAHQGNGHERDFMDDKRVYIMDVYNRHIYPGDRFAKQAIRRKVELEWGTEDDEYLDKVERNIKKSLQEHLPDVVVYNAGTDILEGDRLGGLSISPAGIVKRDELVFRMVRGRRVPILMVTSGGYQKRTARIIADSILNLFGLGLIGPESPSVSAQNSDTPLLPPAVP

Histone deacetylase 9 = Histone deacetylase 9 (Homo sapiens, UniProt Q9UKV0); experiment: Inhibition of human HDAC9 by fluorimetric assay
[2] = target: T4, Protein deacetylase HDAC6 (Homo sapiens, UniProt Q9UBN7); experiment: Inhibition of human HDAC6 by fluorimetric assay
T4 sequence (Q9UBN7 whole entry): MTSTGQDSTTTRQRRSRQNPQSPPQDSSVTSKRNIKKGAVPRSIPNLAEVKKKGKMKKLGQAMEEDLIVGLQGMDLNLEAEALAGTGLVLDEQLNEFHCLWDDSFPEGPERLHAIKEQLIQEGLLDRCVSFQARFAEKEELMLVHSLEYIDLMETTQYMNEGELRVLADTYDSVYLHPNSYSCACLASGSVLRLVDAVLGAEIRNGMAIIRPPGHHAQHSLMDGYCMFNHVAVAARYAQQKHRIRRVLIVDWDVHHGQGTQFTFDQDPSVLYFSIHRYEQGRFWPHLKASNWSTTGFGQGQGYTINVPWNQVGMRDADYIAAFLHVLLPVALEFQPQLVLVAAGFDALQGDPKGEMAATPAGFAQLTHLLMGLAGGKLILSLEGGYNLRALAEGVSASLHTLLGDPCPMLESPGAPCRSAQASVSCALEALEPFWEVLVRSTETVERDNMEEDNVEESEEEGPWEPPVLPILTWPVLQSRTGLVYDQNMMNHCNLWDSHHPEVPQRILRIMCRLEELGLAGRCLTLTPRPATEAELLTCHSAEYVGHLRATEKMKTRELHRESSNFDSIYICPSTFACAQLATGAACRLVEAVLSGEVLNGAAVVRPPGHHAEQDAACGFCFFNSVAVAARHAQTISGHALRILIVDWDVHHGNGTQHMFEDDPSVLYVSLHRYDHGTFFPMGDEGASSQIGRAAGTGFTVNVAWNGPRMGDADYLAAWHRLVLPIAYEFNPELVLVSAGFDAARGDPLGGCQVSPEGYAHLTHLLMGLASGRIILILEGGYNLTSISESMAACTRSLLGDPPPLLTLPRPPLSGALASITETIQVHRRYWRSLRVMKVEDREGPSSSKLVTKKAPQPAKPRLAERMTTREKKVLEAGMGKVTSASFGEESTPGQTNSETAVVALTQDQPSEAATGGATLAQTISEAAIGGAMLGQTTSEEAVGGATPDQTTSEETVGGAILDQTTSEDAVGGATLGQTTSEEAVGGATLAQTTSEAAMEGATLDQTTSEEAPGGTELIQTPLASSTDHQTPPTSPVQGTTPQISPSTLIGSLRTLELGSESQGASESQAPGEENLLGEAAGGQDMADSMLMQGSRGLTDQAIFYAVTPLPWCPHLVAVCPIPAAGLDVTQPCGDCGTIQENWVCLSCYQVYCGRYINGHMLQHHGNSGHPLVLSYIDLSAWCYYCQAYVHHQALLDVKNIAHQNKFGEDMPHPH

NCI-H460 = experiment: cells; assay type: functional, cell-based; details: Homo sapiens, NCI-H460, 48 h
Histone deacetylase 7 = target: T5, Histone deacetylase 7 (Homo sapiens, UniProt Q8WUI4); experiment: Inhibition of human HDAC7 by fluorimetric assay
T5 sequence (Q8WUI4 whole entry): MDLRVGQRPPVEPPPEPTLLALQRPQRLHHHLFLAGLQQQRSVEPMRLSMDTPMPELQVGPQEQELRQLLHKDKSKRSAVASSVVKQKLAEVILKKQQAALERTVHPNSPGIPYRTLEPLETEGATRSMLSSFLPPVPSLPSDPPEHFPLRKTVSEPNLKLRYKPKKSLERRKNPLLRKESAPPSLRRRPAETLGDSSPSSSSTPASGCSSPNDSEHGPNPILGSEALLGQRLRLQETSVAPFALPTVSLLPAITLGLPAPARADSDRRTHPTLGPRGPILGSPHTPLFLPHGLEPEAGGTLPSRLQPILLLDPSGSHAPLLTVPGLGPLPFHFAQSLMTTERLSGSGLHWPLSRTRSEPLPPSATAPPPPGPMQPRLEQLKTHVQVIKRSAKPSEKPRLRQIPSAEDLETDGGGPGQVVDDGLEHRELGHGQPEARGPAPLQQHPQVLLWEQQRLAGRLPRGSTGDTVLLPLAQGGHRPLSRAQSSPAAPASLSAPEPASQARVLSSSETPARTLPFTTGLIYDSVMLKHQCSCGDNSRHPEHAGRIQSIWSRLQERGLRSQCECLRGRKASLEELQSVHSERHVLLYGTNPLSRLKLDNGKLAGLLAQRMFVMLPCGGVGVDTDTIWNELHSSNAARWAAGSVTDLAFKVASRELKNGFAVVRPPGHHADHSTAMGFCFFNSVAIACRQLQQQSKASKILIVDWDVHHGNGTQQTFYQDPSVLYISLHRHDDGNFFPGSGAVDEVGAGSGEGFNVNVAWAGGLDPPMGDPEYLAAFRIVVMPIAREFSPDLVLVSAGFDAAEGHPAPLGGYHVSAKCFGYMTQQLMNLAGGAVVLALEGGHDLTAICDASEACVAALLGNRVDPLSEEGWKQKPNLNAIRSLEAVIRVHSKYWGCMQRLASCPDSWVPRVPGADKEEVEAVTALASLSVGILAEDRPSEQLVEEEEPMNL

Chain of Histone deacetylase 9 (Q9UKV0 whole entry): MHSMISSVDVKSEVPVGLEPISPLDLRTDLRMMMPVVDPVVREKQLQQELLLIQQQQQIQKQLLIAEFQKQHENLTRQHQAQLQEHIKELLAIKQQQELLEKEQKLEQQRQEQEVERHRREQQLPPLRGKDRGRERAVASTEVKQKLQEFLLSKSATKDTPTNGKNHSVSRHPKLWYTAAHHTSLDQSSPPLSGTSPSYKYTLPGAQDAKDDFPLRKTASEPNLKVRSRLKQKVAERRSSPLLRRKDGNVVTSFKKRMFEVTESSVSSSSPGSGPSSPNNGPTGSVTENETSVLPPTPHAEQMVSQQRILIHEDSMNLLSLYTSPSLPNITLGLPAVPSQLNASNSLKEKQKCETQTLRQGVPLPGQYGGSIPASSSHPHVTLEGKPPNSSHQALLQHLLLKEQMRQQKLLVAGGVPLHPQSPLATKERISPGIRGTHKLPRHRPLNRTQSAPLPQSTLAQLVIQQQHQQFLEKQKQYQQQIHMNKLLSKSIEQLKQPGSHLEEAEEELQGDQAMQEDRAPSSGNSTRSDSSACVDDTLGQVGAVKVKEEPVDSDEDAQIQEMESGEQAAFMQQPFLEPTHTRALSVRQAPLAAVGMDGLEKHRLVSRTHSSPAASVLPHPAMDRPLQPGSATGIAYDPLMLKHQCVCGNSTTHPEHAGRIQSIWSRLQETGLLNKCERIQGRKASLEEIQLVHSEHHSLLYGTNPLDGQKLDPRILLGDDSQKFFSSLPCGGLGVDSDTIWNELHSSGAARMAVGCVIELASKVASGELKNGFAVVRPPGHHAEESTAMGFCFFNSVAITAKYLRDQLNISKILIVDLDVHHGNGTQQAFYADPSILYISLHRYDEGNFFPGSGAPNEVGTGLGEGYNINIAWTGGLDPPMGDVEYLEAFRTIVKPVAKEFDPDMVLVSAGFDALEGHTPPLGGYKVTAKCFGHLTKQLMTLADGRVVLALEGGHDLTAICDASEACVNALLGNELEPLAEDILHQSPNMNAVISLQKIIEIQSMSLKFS
Chain of Histone deacetylase 3 (O15379 whole entry): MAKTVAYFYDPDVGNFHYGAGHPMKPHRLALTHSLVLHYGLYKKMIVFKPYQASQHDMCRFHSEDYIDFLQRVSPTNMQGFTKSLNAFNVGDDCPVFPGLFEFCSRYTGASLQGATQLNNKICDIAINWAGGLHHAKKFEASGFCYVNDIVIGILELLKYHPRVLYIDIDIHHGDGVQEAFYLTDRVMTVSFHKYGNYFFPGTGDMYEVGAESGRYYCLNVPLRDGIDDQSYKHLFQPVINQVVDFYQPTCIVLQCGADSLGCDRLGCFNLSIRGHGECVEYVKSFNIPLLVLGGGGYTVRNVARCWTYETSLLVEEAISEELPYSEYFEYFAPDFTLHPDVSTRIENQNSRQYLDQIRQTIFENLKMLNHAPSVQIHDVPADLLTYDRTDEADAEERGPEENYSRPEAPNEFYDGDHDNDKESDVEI
Chain of Histone deacetylase 1 (Q13547 whole entry): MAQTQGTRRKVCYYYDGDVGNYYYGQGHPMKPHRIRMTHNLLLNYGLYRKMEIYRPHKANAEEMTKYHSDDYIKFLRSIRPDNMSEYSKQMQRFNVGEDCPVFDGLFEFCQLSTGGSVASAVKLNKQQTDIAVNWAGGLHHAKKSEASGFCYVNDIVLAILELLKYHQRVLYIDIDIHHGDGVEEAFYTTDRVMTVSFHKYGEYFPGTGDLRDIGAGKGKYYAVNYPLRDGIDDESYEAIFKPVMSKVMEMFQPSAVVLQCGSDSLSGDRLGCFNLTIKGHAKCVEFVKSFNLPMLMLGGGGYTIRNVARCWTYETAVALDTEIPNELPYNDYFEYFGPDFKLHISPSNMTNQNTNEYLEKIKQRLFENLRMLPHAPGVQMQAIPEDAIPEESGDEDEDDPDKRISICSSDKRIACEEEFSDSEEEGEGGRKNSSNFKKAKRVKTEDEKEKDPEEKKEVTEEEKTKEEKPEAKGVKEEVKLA
Chain of Histone deacetylase 2 (Q92769 whole entry): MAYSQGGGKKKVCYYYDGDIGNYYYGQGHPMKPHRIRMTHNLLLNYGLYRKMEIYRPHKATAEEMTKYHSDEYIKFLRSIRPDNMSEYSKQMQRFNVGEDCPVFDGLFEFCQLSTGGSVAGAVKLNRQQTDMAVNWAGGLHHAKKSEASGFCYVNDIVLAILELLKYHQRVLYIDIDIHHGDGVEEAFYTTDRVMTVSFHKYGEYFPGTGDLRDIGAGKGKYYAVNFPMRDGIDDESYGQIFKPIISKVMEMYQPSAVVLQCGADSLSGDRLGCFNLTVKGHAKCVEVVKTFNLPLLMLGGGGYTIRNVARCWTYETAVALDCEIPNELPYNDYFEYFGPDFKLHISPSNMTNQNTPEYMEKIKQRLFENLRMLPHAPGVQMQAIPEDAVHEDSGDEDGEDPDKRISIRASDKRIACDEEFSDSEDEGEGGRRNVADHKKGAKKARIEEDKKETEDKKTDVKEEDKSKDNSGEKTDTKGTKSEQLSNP
Chain of Histone deacetylase 5 (Q9UQL6 whole entry): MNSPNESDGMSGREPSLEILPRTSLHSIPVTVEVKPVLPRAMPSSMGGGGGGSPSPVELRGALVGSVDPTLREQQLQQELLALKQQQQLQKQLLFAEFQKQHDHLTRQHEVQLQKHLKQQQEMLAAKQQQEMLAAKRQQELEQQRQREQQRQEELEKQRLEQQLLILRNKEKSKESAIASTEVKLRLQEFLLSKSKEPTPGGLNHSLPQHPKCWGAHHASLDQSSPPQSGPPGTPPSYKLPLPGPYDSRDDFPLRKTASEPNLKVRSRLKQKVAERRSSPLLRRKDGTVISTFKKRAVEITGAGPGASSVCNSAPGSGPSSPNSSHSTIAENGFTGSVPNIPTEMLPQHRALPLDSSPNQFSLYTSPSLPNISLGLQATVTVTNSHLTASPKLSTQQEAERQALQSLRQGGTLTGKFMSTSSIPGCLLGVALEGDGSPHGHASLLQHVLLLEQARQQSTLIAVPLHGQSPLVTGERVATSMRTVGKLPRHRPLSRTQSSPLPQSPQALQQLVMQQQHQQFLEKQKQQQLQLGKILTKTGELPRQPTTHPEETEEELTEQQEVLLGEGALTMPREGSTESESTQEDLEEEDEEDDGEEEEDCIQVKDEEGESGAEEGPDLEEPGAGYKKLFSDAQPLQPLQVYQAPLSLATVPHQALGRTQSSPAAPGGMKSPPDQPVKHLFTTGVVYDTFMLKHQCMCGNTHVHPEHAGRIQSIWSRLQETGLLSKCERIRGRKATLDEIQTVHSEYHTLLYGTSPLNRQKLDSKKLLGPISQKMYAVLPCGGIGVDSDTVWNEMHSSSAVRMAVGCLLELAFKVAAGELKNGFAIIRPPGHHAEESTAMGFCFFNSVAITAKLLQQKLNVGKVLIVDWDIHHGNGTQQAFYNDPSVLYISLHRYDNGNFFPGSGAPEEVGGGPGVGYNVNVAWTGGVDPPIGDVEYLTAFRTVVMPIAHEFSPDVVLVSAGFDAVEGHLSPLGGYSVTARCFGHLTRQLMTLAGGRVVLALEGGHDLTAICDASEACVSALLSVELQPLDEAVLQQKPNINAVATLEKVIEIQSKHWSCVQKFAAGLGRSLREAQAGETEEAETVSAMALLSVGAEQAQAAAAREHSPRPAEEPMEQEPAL
Chain of Histone deacetylase 4 (P56524 whole entry): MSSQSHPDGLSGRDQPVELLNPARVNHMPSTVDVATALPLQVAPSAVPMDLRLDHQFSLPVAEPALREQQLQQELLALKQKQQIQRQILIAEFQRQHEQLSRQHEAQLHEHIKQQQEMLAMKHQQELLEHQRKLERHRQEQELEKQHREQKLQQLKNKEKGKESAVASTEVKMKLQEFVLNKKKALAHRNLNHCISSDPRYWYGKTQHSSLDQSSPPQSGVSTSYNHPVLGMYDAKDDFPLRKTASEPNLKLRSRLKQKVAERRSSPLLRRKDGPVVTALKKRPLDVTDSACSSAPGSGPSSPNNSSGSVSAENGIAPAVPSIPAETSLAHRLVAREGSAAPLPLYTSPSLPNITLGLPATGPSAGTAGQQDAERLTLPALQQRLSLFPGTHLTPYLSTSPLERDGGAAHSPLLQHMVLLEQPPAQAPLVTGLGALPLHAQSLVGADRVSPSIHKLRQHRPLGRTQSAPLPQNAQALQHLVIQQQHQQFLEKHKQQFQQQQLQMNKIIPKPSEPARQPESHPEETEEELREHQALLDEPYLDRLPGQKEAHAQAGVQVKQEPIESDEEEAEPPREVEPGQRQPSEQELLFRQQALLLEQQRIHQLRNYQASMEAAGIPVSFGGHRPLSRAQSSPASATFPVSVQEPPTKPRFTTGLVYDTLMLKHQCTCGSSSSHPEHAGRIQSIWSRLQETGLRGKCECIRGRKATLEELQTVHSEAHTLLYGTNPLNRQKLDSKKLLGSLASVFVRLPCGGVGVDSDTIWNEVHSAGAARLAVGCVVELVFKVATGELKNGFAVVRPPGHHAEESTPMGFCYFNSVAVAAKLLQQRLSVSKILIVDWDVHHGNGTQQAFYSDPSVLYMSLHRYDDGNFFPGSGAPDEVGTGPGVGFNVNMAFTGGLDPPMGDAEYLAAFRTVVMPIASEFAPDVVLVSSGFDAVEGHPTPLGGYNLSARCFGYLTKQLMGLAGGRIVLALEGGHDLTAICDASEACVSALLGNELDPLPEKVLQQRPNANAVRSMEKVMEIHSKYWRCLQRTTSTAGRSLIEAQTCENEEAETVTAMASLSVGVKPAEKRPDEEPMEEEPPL

Compound	IC50 (Histone deacetylase 5) [nM]	IC50 [1] [nM]	IC50 (Histone deacetylase 1) [nM]	IC50 (Histone deacetylase 8) [nM]	IC50 (Histone deacetylase 2) [nM]	IC50 (Histone deacetylase 4) [nM]	IC50 (Histone deacetylase 3) [nM]	IC50 (HCT-116) [nM]	IC50 (Histone deacetylase 11) [nM]	IC50 (Histone deacetylase 9) [nM]	IC50 [2] [nM]	IC50 (NCI-H460) [nM]	IC50 (Histone deacetylase 7) [nM]
O=C(CCCCCC1OCCCCCCCOc2ccccc2NC1=O)NO (racemic)	695	958	439	286	1540	1250	240	350	546	1040	9.38	620	
COc1cc2cc(c1)COc1ccccc1NC(=O)C(CCCCCC(=O)NO)OC/C=C\2 (racemic)	55.4	70.7	30.7	119	207	159	39.6	450	57.7	99.6	1.97	880	72.6
COc1cc2cc(c1)COc1ccccc1NC(=O)C(CCCCCC(=O)NO)OCCC2 (racemic)	341	320	204	444	793	447	246	690	226	336	8.44	870	
COc1ccc(COC(CCCCCC(=O)NO)C(=O)Nc2ccccc2)cc1 (racemic)	134	179	53.4	331	254	648	131		197	247	20.1		
O=C(/C=C/c1ccc(CN(CCO)CCc2c[nH]c3ccccc23)cc1)NO [DACINOSTAT]								18				70	
CC(/C=C/C(=O)NO)=C\[C@@H](C)C(=O)c1ccc(N(C)C)cc1 [TRICHOSTATIN]								43				100	
